Source: article PMC3622084 (Biochemistry, 2013)

Tests used:
Experiment in all cases: Clark electrode O2 uptake, cytochrome c / ascorbate / TMPD
Assay type in all cases: biochemical
[1] = target: T1, Rhodobacter sphaeroides cytochrome c oxidase (RsCcO) (Cereibacter sphaeroides, UniProt P33517+Q03736, Q03736:E101A)
[2] = target: T1, Rhodobacter sphaeroides cytochrome c oxidase (RsCcO); remark: listed apart in the source
[3] = target: Rhodobacter sphaeroides cytochrome c oxidase (RsCcO) (Cereibacter sphaeroides, UniProt P33517+Q03736); details: read-out: K1/2; inhibition; 0.01% DDM, pH 7.4, 30 μM bovine cytochrome c
Sequence of Rhodobacter sphaeroides cytochrome c oxidase (RsCcO) (Cereibacter sphaeroides, UniProt P33517+Q03736) (P33517 whole entry): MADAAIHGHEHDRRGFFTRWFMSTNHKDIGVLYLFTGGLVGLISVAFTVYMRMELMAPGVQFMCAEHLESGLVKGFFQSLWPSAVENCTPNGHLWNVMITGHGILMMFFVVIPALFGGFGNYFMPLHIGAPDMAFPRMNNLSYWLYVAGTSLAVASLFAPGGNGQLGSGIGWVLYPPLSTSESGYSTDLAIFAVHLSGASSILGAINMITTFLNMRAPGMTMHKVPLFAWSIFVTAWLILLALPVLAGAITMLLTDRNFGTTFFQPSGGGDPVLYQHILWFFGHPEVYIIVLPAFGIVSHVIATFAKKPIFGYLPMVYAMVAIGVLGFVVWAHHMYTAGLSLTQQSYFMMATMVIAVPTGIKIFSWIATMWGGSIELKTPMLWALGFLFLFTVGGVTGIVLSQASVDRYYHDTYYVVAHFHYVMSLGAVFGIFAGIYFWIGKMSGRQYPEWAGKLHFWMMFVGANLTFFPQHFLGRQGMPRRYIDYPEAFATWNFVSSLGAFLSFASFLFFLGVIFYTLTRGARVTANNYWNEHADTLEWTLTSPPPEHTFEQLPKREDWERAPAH
Sequence of Rhodobacter sphaeroides cytochrome c oxidase (RsCcO) (Cereibacter sphaeroides, UniProt P33517+Q03736) (Q03736 26-303 limits assumed): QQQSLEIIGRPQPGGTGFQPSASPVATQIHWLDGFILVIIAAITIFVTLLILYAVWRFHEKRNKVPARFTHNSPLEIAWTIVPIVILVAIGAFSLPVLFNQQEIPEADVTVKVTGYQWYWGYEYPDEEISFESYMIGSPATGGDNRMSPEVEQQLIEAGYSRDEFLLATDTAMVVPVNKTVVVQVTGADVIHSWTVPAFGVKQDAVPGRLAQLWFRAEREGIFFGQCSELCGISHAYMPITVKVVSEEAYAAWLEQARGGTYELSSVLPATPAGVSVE

T1 sequence (P33517 whole entry): as the sequence (P33517 whole entry) above
T1 sequence (Q03736 26-303 E101A limits assumed): as the sequence (Q03736 26-303 limits assumed) above, with E76A counted along it

Row | Compound | EC50 [1] | further results
1 | C=CC1=C(C)/C(=C/c2[nH]c(Cc3[nH]c(/C=C4\NC(=O)C(C)=C4C=C)c(C)c3CCC(=O)O)c(CCC(=O)O)c2C)NC1=O [bilirubin] | ~50 µM | –
2 | C[C@H](CCC(=O)O)[C@H]1CC[C@H]2[C@@H]3[C@H](O)C[C@@H]4C[C@H](O)CC[C@]4(C)[C@H]3C[C@H](O)[C@]12C [cholate] | 200 µM | –
3 | CC(C)CCC[C@@H](C)[C@H]1CC[C@H]2[C@@H]3CC=C4C[C@@H](OC(=O)CCC(=O)O)CC[C@]4(C)[C@H]3CC[C@]12C [cholesteryl hemisuccinate] | ~80 µM | –
4 | CCCCCCCC/C=C\CCCCCCCC(=O)OC[C@@H](O)COP(=O)([O-])OCC[N+](C)(C)C [lyso-oleoyl phosphatidylcholine] | – | IC50 [2]: ~17 µM
5 | CC(C)CCCC(C)CCCC(C)CCCC(C)CC(=O)O (centres unmarked) [phytanic acid] | ~4 µM | –
6 | C=CC1=C(C)c2cc3[nH]c(cc4nc(cc5[nH]c(cc1n2)c(C)c5CCC(=O)O)C(CCC(=O)O)=C4C)c(C)c3C=C [protoporphyrin IX] | ~14 µM | –
7 | CC1=C(/C=C/C(C)=C/C=C/C(C)=C/C(=O)O)C(C)(C)CCC1 [retinoic acid] | ~8 µM | –
8 | CHOBIMALT | – | IC50 [3]: ~200 µM
